Assay results from ChEMBL document CHEMBL1201862, “PubChem BioAssay data set” (2004).
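In this assay, cells in 96-well plates receive the compound at five concentrations for 48 hours. Endpoints are linearly interpolated between the surrounding concentrations. Here, GI50 denotes the concentration required for 50% inhibition of growth.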 Calls of active or inactive are those of the source. No stated cut-off is given here; in the data, active = GI50 up to about 1.1 µM and inactive = higher.

Assays:
Assay in all cases: inhibition of tumour cell growth, NCI panel, 48 h
HL-60 = tested on: HL-60
UO-31 = tested on: UO-31
SK-OV-3 = tested on: SK-OV-3
HT-29 = tested on: HT-29
OVCAR-3 = tested on: OVCAR-3
NCI-H23 = tested on: NCI-H23
Hs-578T = tested on: Hs-578T
A549 = tested on: A549
SK-MEL-5 = tested on: SK-MEL-5
SF-268 = tested on: SF-268
MDA-N = tested on: MDA-N
EKVX = tested on: EKVX
IGROV-1 = tested on: IGROV-1
K562 = tested on: K562
SF-539 = tested on: SF-539
NCI-H460 = tested on: NCI-H460
HOP-62 = tested on: HOP-62
HCC 2998 = tested on: HCC 2998
SW-620 = tested on: SW-620
NCI-H522 = tested on: NCI-H522

| SMILES | GI50 (HL-60) | GI50 (UO-31) | GI50 (SK-OV-3) | GI50 (HT-29) | GI50 (OVCAR-3) | GI50 (NCI-H23) | GI50 (Hs-578T) | GI50 (A549) | GI50 (SK-MEL-5) | GI50 (SF-268) | GI50 (MDA-N) | GI50 (EKVX) | GI50 (IGROV-1) | GI50 (K562) | GI50 (SF-539) | GI50 (NCI-H460) | GI50 (HOP-62) | GI50 (HCC 2998) | GI50 (SW-620) | GI50 (NCI-H522) |
| --- | --- | --- | --- | --- | --- | --- | --- | --- | --- | --- | --- | --- | --- | --- | --- | --- | --- | --- | --- | --- |
| CC1(c2ccc(Cl)s2)CC(c2ccc(Cl)s2)=C(C#N)C(=C(C#N)C#N)N1 (stereo not drawn) | 16.7 µM (inactive) | 18.7 µM (inactive) | 16.9 µM (inactive) | 19.2 µM (inactive) | 15 µM (inactive) | 21.2 µM (inactive) | 29.5 µM (inactive) | 22.4 µM (inactive) | 15.2 µM (inactive) | 20.7 µM (inactive) | 22.4 µM (inactive) | 18.2 µM (inactive) | 19.9 µM (inactive) | 29.6 µM (inactive) | 26.3 µM (inactive) | 29 µM (inactive) | 18.8 µM (inactive) | 18.9 µM (inactive) | 13.9 µM (inactive) | – |
| CC(=O)N1C(Nc2ccccn2)CCN1c1ccccc1 (stereo not drawn) | > 10 µM (inactive) | > 10 µM (inactive) | > 10 µM (inactive) | > 10 µM (inactive) | > 10 µM (inactive) | > 10 µM (inactive) | > 10 µM (inactive) | > 10 µM (inactive) | > 10 µM (inactive) | > 10 µM (inactive) | > 10 µM (inactive) | > 10 µM (inactive) | > 10 µM (inactive) | > 10 µM (inactive) | > 10 µM (inactive) | > 10 µM (inactive) | > 10 µM (inactive) | > 10 µM (inactive) | > 10 µM (inactive) | > 10 µM (inactive) |
| CCN(CCCl)c1cccc(NC(=O)c2ccc(C(=O)Nc3cccc(CN(C)C)c3)cc2)c1 | 0.0292 µM (active) | 0.475 µM (active) | 0.298 µM (active) | 0.0597 µM (active) | – | 0.0935 µM (active) | 0.0618 µM (active) | 0.211 µM (active) | 0.0118 µM (active) | 0.0379 µM (active) | 0.05 µM (active) | – | 0.0344 µM (active) | 0.0422 µM (active) | 0.244 µM (active) | 0.0537 µM (active) | 0.0641 µM (active) | 0.123 µM (active) | 0.034 µM (active) | < 0.01 µM (active) |
| COc1cc(Cn2c3c(c4cc(O)ccc42)C(=O)c2ccccc2C3=O)cc(OC)c1 | 13.7 µM (inactive) | 4.32 µM (inactive) | 2.32 µM (inactive) | 4.1 µM (inactive) | 20.6 µM (inactive) | 8.57 µM (inactive) | 11 µM (inactive) | 10.5 µM (inactive) | 4.29 µM (inactive) | 2.88 µM (inactive) | 1.49 µM (inactive) | 15.3 µM (inactive) | 2.11 µM (inactive) | – | 2.05 µM (inactive) | 5.61 µM (inactive) | 2.77 µM (inactive) | 6.19 µM (inactive) | 16.7 µM (inactive) | 2.43 µM (inactive) |
| COC1OC(CBr)C(OC(c2ccccc2)(c2ccccc2)c2ccccc2)C(OC(c2ccccc2)(c2ccccc2)c2ccccc2)C1OC(c1ccccc1)(c1ccccc1)c1ccccc1 (stereo not drawn) | > 100 µM (inactive) | 14.3 µM (inactive) | 23 µM (inactive) | 96.6 µM (inactive) | 14.1 µM (inactive) | 87.3 µM (inactive) | 34.9 µM (inactive) | 38.9 µM (inactive) | 66.5 µM (inactive) | 63.5 µM (inactive) | 74.3 µM (inactive) | 17.5 µM (inactive) | 78.2 µM (inactive) | > 100 µM (inactive) | 23.1 µM (inactive) | 46.1 µM (inactive) | 25.2 µM (inactive) | 65.2 µM (inactive) | 64.1 µM (inactive) | 16 µM (inactive) |
| COc1cc2ccc(/C=C\[N+](=O)[O-])cc2cc1OC | 1.97 µM (inactive) | 1.82 µM (inactive) | 14.3 µM (inactive) | 2 µM (inactive) | 3.5 µM (inactive) | 2.5 µM (inactive) | 7.69 µM (inactive) | 11.4 µM (inactive) | 4.76 µM (inactive) | 3.36 µM (inactive) | 2.18 µM (inactive) | 4.3 µM (inactive) | 1.97 µM (inactive) | 2.39 µM (inactive) | 1.97 µM (inactive) | 15.7 µM (inactive) | 2.83 µM (inactive) | 3.44 µM (inactive) | 2.65 µM (inactive) | 1.13 µM (inactive) |
| O=C1CCC2(CC1CC(Sc1ccccc1)Sc1ccccc1)OCCO2 (stereo not drawn) | 19.8 µM (inactive) | 36.1 µM (inactive) | > 100 µM (inactive) | 61.4 µM (inactive) | 30.6 µM (inactive) | 42.7 µM (inactive) | 23.2 µM (inactive) | 38.2 µM (inactive) | 17.5 µM (inactive) | 31.2 µM (inactive) | 42.4 µM (inactive) | 61.8 µM (inactive) | 74.3 µM (inactive) | 31.9 µM (inactive) | 43.1 µM (inactive) | 31.8 µM (inactive) | 81.1 µM (inactive) | 44.1 µM (inactive) | 49.4 µM (inactive) | 23.3 µM (inactive) |
| CCNC(=O)Cc1nc2c(N)ncnc2n1C1OC(CO)C(O)C1O (stereo not drawn) | 91.4 µM (inactive) | > 100 µM (inactive) | 39 µM (inactive) | > 100 µM (inactive) | > 100 µM (inactive) | > 100 µM (inactive) | > 100 µM (inactive) | > 100 µM (inactive) | > 100 µM (inactive) | > 100 µM (inactive) | > 100 µM (inactive) | > 100 µM (inactive) | > 100 µM (inactive) | > 100 µM (inactive) | > 100 µM (inactive) | > 100 µM (inactive) | > 100 µM (inactive) | 95.7 µM (inactive) | > 100 µM (inactive) | > 100 µM (inactive) |
| CC(=O)OC1COC(Nc2nc(N)n(C)c(=O)c2N=O)C(OC(C)=O)C1OC(C)=O (stereo not drawn) | > 10 µM (inactive) | – | > 10 µM (inactive) | > 10 µM (inactive) | > 10 µM (inactive) | > 10 µM (inactive) | > 10 µM (inactive) | > 10 µM (inactive) | > 10 µM (inactive) | > 10 µM (inactive) | > 10 µM (inactive) | > 10 µM (inactive) | > 10 µM (inactive) | – | > 10 µM (inactive) | > 10 µM (inactive) | > 10 µM (inactive) | > 10 µM (inactive) | > 10 µM (inactive) | > 10 µM (inactive) |
| O=C(O)CCCc1ccc2c(c1)C(C(=O)O)CC2 (stereo not drawn) | > 100 µM (inactive) | > 100 µM (inactive) | > 100 µM (inactive) | > 100 µM (inactive) | – | > 100 µM (inactive) | > 100 µM (inactive) | > 100 µM (inactive) | > 100 µM (inactive) | > 100 µM (inactive) | > 100 µM (inactive) | > 100 µM (inactive) | > 100 µM (inactive) | > 100 µM (inactive) | > 100 µM (inactive) | > 100 µM (inactive) | > 100 µM (inactive) | > 100 µM (inactive) | > 100 µM (inactive) | > 100 µM (inactive) |
| CC(=O)Oc1ccc(C)c2c1[C@H]1CC[C@]3(C)[C@@H](OC(C)=O)CC[C@H]3[C@@H]1CC2 | 20.7 µM (inactive) | 39.3 µM (inactive) | – | 17.1 µM (inactive) | 18.2 µM (inactive) | 16.8 µM (inactive) | 23 µM (inactive) | 20.5 µM (inactive) | 19.5 µM (inactive) | 26.7 µM (inactive) | 18.5 µM (inactive) | 15.5 µM (inactive) | 18.7 µM (inactive) | 23.4 µM (inactive) | 19.6 µM (inactive) | 20 µM (inactive) | 18.1 µM (inactive) | 18 µM (inactive) | 18.9 µM (inactive) | 17.7 µM (inactive) |
| O=[N+]([O-])c1ncc(N(CCO)CCO)s1 | 17.7 µM (inactive) | 43.1 µM (inactive) | > 100 µM (inactive) | 49.7 µM (inactive) | 65.6 µM (inactive) | 41 µM (inactive) | 32.1 µM (inactive) | – | – | 40.3 µM (inactive) | 30.3 µM (inactive) | > 100 µM (inactive) | – | 20.8 µM (inactive) | 14.4 µM (inactive) | 61.2 µM (inactive) | 42.9 µM (inactive) | 47 µM (inactive) | 33.3 µM (inactive) | 16.4 µM (inactive) |
| CC1(C)[C@@H]2C[C@H]1C(Cc1cccc(C[C@H]3c4cc(-c5ccccn5)ncc4[C@H]4C[C@@H]3C4(C)C)c1)c1cc(-c3ccccn3)ncc12 (stereo partly drawn) | 0.295 µM (active) | 0.785 µM (active) | 1.25 µM (inactive) | 0.951 µM (active) | 0.502 µM (active) | 1.82 µM (inactive) | > 100 µM (inactive) | 0.518 µM (active) | 0.303 µM (active) | 0.513 µM (active) | 0.729 µM (active) | – | 0.452 µM (active) | 0.435 µM (active) | 1.28 µM (inactive) | 0.689 µM (active) | 1.28 µM (inactive) | 0.923 µM (active) | 0.745 µM (active) | 1.63 µM (inactive) |
| O=C1/C(=N/CCc2cc(Br)c(O)c(Br)c2)C=C(O)c2cccnc21 | 4.88 µM (inactive) | 3.12 µM (inactive) | 7.26 µM (inactive) | 2.6 µM (inactive) | 1.59 µM (inactive) | 0.502 µM (active) | 1.49 µM (inactive) | 2.1 µM (inactive) | 1.24 µM (inactive) | 2.19 µM (inactive) | 0.4 µM (active) | 8.47 µM (inactive) | 2.07 µM (inactive) | 1.56 µM (inactive) | 0.918 µM (active) | 1.17 µM (inactive) | 1.11 µM (active) | 6.78 µM (inactive) | 2.17 µM (inactive) | 1.74 µM (inactive) |
